The target in this test is human adenosine A2a receptor (Homo sapiens (Human), UniProt P29274). As to the kind of experiment: A2a receptor binding affinity, [3H]-NECA radioligand binding test. The settings on record: [3H]-NECA 37 nM; membrane from HEK-293 cells transfected with human adenosine A2a receptor. The method, boiled down:
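Membranes from HEK-293 cells expressing human A2a receptor were incubated with [3H]-NECA (final 37 nM) and compound for 1 h at room temperature in 50 mM Tris, 10 mM MgCl2, 1 mM EDTA, pH 7.4. Bound ligand was filtered on PEI-coated plates and counted by scintillation to derive IC50 (μM).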

Chain of human adenosine A2a receptor (P29274 whole entry): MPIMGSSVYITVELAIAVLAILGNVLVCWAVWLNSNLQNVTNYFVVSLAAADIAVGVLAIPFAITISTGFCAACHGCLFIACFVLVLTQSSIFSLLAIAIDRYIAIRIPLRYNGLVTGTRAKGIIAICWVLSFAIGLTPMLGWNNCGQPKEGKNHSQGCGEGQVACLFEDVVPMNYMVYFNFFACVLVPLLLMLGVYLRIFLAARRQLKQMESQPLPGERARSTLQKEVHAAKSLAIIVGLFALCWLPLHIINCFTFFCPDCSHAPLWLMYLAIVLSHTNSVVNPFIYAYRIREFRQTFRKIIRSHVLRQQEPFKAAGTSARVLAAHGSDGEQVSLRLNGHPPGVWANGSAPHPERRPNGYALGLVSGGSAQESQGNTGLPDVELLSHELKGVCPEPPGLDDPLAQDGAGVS

As for `CC(F)(F)CN1CCC(C2CCN(C(=O)[C@@H]3CCN3c3nc(N)n4nc(-c5ccco5)nc4n3)CC2)CC1` [Example 324, (S)-(1-(7-amino-2-(furan-2-yl)-[1,2,4]triazolo[1,5-a][1,3,5]triazin-5-yl)azetidin-2-yl)(1′-(2,2-difluoropropyl)-[4,4′-bipiperidin]-1-yl)methanone], the IC50 (commonly the concentration at which inhibition is half-maximal) was found to be 5 nM.
For the compound `CCCCN1CCN(C(=O)[C@@H]2CCCN2c2cc3nc(-c4ccco4)nn3c(N)n2)CC1` [Example 361, (S)-(1-(5-amino-2-(furan-2-yl)-[1,2,4]triazolo[1,5-c]pyrimidin-7-yl)pyrrolidin-2-yl)(4-butylpiperazin-1-yl)methanone], the IC50 was 9 nM. Against the preceding compound, the IC50 is about 1.8-fold higher.
In turn, `CC(F)(F)CN1CCN(C(=O)[C@@H]2CCN2c2nc(N)n3nc(-c4ccco4)nc3n2)CC1` [Example 253, (S)-(1-(7-amino-2-(furan-2-yl)-[1,2,4]triazolo[1,5-a][1,3,5]triazin-5-yl)azetidin-2-yl)(4-(2,2-difluoropropyl)piperazin-1-yl)methanone] yielded an IC50 of 7 nM.
For the compound `CC(F)(F)CN1CCN(C(=O)[C@@H](Nc2nc(N)n3nc(-c4ccco4)nc3n2)C2CC2)CC1` [Example 357, (S)-2-((7-amino-2-(furan-2-yl)-[1,2,4]triazolo[1,5-a][1,3,5]triazin-5-yl)amino)-2-cyclopropyl-1-(4-(2,2-difluoropropyl)piperazin-1-yl)ethan-1-one], the IC50 was 9 nM.
The compound `CC1CN(C(=O)[C@@H]2CCCN2c2nc(N)n3nc(-c4ccco4)nc3n2)CC(C)N1Cc1ccc(F)cc1F` (stereo partly drawn) [Example 49, ((S)-1-(7-amino-2-(furan-2-yl)-[1,2,4]triazolo[1,5-a][1,3,5]triazin-5-yl)pyrrolidin-2-yl)(4-(2,4-difluorobenzyl)-3,5-dimethylpiperazin-1-yl)methanone] returned an IC50 of 3 nM.
In the case of `Nc1nc(N2CCC[C@H]2C(=O)N2CCN(CC(F)F)CC2)nc2oc(-c3ccco3)nc12` [Example 269, (S)-(1-(7-amino-2-(furan-2-yl)oxazolo[5,4-d]pyrimidin-5-yl)pyrrolidin-2-yl)(4-(2,2-difluoroethyl)piperazin-1-yl)methanone] it was 39 nM; in that of `COCCN1CCN(C(=O)[C@@H]2CCCN2c2nc(N)n3nc(-c4ccco4)nc3n2)CC1=O` [Example 246, 4-((7-amino-2-(furan-2-yl)-[1,2,4]triazolo[1,5-a][1,3,5]triazin-5-yl)-L-prolyl)-1-(2-methoxyethyl)piperazin-2-one], 3 nM.
In the case of `Nc1nc(N2CCC[C@@H]2C(=O)N2CCN(Cc3ccccc3)CC2)nc2nc(-c3ccco3)nn12` [Example 95, (R)-(1-(7-amino-2-(furan-2-yl)-[1,2,4]triazolo[1,5-a][1,3,5]triazin-5-yl)pyrrolidin-2-yl)(4-benzylpiperazin-1-yl)methanone], the 50% inhibitory concentration (IC50) came out at 4990 nM.
For the compound `COc1cccc(C(=O)N2CCN(C(=O)[C@@H]3CCCN3c3nc(N)n4nc(-c5ccco5)nc4n3)CC2)c1` [Example 63], the IC50 amounted to 1 nM.
`Nc1nc(N2CCC[C@H]2C(=O)N2CCCN(c3ccc(F)cc3F)CC2)nc2nc(-c3ccco3)nn12` [Example 276, (S)-(1-(7-amino-2-(furan-2-yl)-[1,2,4]triazolo[1,5-a][1,3,5]triazin-5-yl)pyrrolidin-2-yl)(4-(2,4-difluorophenyl)-1,4-diazepan-1-yl)methanone] displayed a concentration for half-maximal inhibition (IC50) of 7 nM. This IC50 lies about 7-fold higher than the previous one.
As for `CCCCN1CCC(C2CCN(C(=O)[C@@H]3CCN3c3cc4nc(-c5ccco5)nn4c(N)n3)CC2)CC1` [Example 383, (S)-(1-(5-amino-2-(furan-2-yl)-[1,2,4]triazolo[1,5-c]pyrimidin-7-yl)azetidin-2-yl)(1′-butyl-[4,4′-bipiperidin]-1-yl)methanone], the figure is 2 nM; as for `CC(C)(F)C(=O)N1CCN(C(=O)[C@@H]2CCCN2c2nc(N)n3nc(-c4ccco4)nc3n2)CC1` [Example 85, 1-(4-((7-amino-2-(furan-2-yl)-[1,2,4]triazolo[1,5-a][1,3,5]triazin-5-yl)-L-prolyl)piperazin-1-yl)-2-fluoro-2-methylpropan-1-one], 28 nM; as for `COCCN1CCC(C2CCN(C(=O)[C@@H]3CCCN3c3nc(N)n4nc(-c5ccco5)nc4n3)CC2)CC1` [Example 266, (S)-(1-(7-amino-2-(furan-2-yl)-[1,2,4]triazolo[1,5-a][1,3,5]triazin-5-yl)pyrrolidin-2-yl)(1′-(2-methoxyethyl)-[4,4′-bipiperidin]-1-yl) methanone], 15 nM.
For `Nc1nc(N[C@H](C(=O)N2CCN(c3ccc(F)cc3F)CC2)C2CC2)nc2nc(-c3ccco3)nn12` [Example 168, (S)-2-((7-amino-2-(furan-2-yl)-[1,2,4]triazolo[1,5-a][1,3,5]triazin-5-yl)amino)-2-cyclopropyl-1-(4-(2,4-difluorophenyl)piperazin-1-yl)ethan-1-one], the IC50 came to 4 nM.
In the case of `CC(F)(F)CN1CCN(C(=O)[C@@H]2CCCN2c2cc3nc(-c4ccco4)nn3c(N)n2)CC1` [Example 294, (S)-(1-(5-amino-2-(furan-2-yl)-[1,2,4]triazolo[1,5-c]pyrimidin-7-yl)pyrrolidin-2-yl)(4-(2,2-difluoropropyl)piperazin-1-yl)methanone], the IC50 was determined as 4 nM. In other words, the single-digit nanomolar range.
As for `Nc1nc(N2CCCC[C@H]2C(=O)N2CCN(Cc3ccc(F)cc3F)CC2)nc2nc(-c3ccco3)nn12` [Example 29, (S)-(1-(7-amino-2-(furan-2-yl)-[1,2,4]triazolo[1,5-a][1,3,5]triazin-5-yl)piperidin-2-yl)(4-(2,4-difluorobenzyl)piperazin-1-yl)methanone], the figure is 8 nM; as for `CC(C)(F)CN1CCN(C(=O)[C@@H]2CCCN2c2nc(N)n3nc(-c4ccco4)nc3n2)CC1` [Example 26, (S)-(1-(7-amino-2-(furan-2-yl)-[1,2,4]triazolo[1,5-a][1,3,5]triazin-5-yl)pyrrolidin-2-yl)(4-(2-fluoro-2-methylpropyl)piperazin-1-yl)methanone], 4 nM.
`CCCCN1CCN(C(=O)[C@@H]2CCCN2c2nc(N)n3nc(-c4ccco4)nc3n2)CC1` [Example 47, (S)-(1-(7-amino-2-(furan-2-yl)-[1,2,4]triazolo[1,5-a][1,3,5]triazin-5-yl)pyrrolidin-2-yl)(4-butylpiperazin-1-yl) methanone] showed an IC50 of 8 nM.
`CCCCN1CCN(C(=O)[C@@H]2CCCN2c2nc(N)n3nc(-c4ccc(C)o4)nc3n2)CC1` [Example 189, (S)-(1-(7-amino-2-(5-methylfuran-2-yl)-[1,2,4]triazolo[1,5-a][1,3,5]triazin-5-yl)pyrrolidin-2-yl)(4-butylpiperazin-1-yl)methanone]: the IC50 came out at 9 nM.
In the case of `Cc1ccc(-c2nc3nc(N4CC[C@H]4C(=O)N4CCN(CC(C)(F)F)CC4)nc(N)n3n2)o1` [Example 314, (S)-(1-(7-amino-2-(5-methylfuran-2-yl)-[1,2,4]triazolo[1,5-a][1,3,5]triazin-5-yl)azetidin-2-yl)(4-(2,2-difluoropropyl)piperazin-1-yl)methanone] it was 19 nM; in that of `Nc1nc(N[C@@H](Cc2ccccc2)C(=O)N2CCN(S(=O)(=O)c3ccccc3)CC2)nc2nc(-c3ccco3)nn12` [Example 6, (S)-2-((7-amino-2-(furan-2-yl)-[1,2,4]triazolo[1,5-a][1,3,5]triazin-5-yl)amino)-3-phenyl-1-(4-(phenylsulfonyl)piperazin-1-yl)propan-1-one], 0.214 nM; in that of `Cc1ccc(-c2nc3nc(N4CC[C@H]4C(=O)N4CCN(c5ncccn5)CC4)nc(N)n3n2)o1` [Example 210, (S)-(1-(7-amino-2-(5-methylfuran-2-yl)-[1,2,4]triazolo[1,5-a][1,3,5]triazin-5-yl)azetidin-2-yl)(4-(pyrimidin-2-yl)piperazin-1-yl)methanone], 1 nM.
Regarding `Nc1nc(N[C@@H](Cc2ccccc2)C(=O)N2CCN(Cc3cccc(F)c3)CC2)nc2nc(-c3ccco3)nn12` [Example 17, (S)-2-((7-amino-2-(furan-2-yl)-[1,2,4]triazolo[1,5-a][1,3,5]triazin-5-yl)amino)-1-(4-(3-fluorobenzyl)piperazin-1-yl)-3-phenylpropan-1-one], the 50% inhibitory concentration (IC50) came to 0.135 nM.
As for `Nc1nc(N2CCC[C@H]2C(=O)N2CCN(CC3(C(F)(F)F)CCCCC3)CC2)nc2nc(-c3ccco3)nn12` [Example 286], the figure is 2 nM.
Regarding `CC(C)(O)CC(=O)N1CCN(C(=O)[C@@H](Nc2nc(N)n3nc(-c4ccco4)nc3n2)C2CC2)CC1` [Example 370, (S)-1-(4-(2-((7-amino-2-(furan-2-yl)-[1,2,4]triazolo[1,5-a][1,3,5]triazin-5-yl)amino)-2-cyclopropylacetyl)piperazin-1-yl)-3-hydroxy-3-methylbutan-1-one], the IC50 came to 4 nM. Against the preceding compound, the IC50 is about 2-fold higher.
For the compound `CC(C)(F)CN1CCC(C2CCN(C(=O)[C@@H]3CCN3c3cc4nc(-c5ccco5)nn4c(N)n3)CC2)CC1` [Example 382, (S)-(1-(5-amino-2-(furan-2-yl)-[1,2,4]triazolo[1,5-c]pyrimidin-7-yl)azetidin-2-yl)(1′-(2-fluoro-2-methylpropyl)-[4,4′-bipiperidin]-1-yl)methanone], the IC50 was 3 nM.
As for `CCCCN1CCN(C(=O)[C@H](CC(C)C)Nc2nc(N)n3nc(-c4ccco4)nc3n2)CC1` [Example 175, (S)-2-((7-amino-2-(furan-2-yl)-[1,2,4]triazolo[1,5-a][1,3,5]triazin-5-yl)amino)-1-(4-butylpiperazin-1-yl)-4-methylpentan-1-one], the figure is 12 nM; as for `CC(C)(F)CN1CCC(C2CCN(C(=O)[C@@H]3CCCN3c3nc(N)n4nc(-c5ccco5)nc4n3)CC2)CC1` [Example 245, (S)-(1-(7-amino-2-(furan-2-yl)-[1,2,4]triazolo[1,5-a][1,3,5]triazin-5-yl)pyrrolidin-2-yl)(1′-(2-fluoro-2-methylpropyl)-[4,4′-bipiperidin]-1-yl)methanone], 15 nM.
